Data from patent publication US20230210834A1, “RNA METHYLTRANSFERASE INHIBITOR, SCREENING METHOD THEREFOR, ANTI-CANCER AGENT EFFICACY ASSESSMENT MARKER, AND KIT FOR EFFECTIVELY PREDICTING FTSJ1 INHIBITOR” (National University Corporation Okayama University, priority 2019, published 2023).

Experiments:
MGG4 = assay: Sphere-forming ability (anchorage-independent cell proliferation), MGG4; format: cell-based, human; conditions: MGG4 (high FTSJ1 expression), 1 week, 0-5000 nM; FIG. 4B
Procedure: To verify whether the expression analysis of these gene clusters contributes to predicting the anti-cancer effect by the FTSJ1 inhibitors, the FTSJ1 gene was actually used as an example to analyze the anti-cancer effect of the FTSJ1 inhibitor PVZF2001 on human malignant brain tumor cell lines. Human malignant brain tumor cell lines MGG4, MGG8, MGG18, MGG23 were treated with stem cell medium (Neurobasal, B-27, N-2, 20 ng/mL EGF, 20 ng/mL bFGF) containing different concentrations (0 nm, 200 nM, 500 nM, 1000 NM, 2000 NM, 5000 nM) of PVZF2001 for 1 week, and anchorage-independent cell proliferation was evaluated based on sphere-forming ability.

FTSJ1 = biological target: T1, FTSJ1 (Homo sapiens, UniProt Q9UET6); assay: Screening test: FLAG-FTSJ1 transmethylation of total RNA, SAM to SAH conversion measured with MTase-Glo luminescence; format: biochemical; conditions: 10 ng/reaction FLAG-FTSJ1, 1,000 ng/reaction total RNA, different concentrations; FIG. 3B
T1 construct: made in house; host or cells: HEK293 cells stably expressing FLAG-tagged FTSJ1
T1 sequence (Q9UET6 1-329): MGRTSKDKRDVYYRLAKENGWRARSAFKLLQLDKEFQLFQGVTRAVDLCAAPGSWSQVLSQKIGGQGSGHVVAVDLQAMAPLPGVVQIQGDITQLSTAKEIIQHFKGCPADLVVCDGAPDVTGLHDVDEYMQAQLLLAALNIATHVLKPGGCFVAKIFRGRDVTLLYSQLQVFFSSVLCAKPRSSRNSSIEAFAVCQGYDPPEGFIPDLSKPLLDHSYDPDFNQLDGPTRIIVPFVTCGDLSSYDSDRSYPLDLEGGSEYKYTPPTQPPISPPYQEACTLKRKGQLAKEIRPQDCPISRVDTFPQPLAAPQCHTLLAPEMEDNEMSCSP
Procedure: HEK293 human embryonic kidney cells that constantly express FLAG-tagged FTSJ1 were produced, and from its cell lysate, FLAG-FTSJ1 was separated by adsorption using an anti-FLAG M2 antibody affinity gel (Sigma-Aldrich Co. LLC, catalog number: A2220-10ML), and eluted with FLAG peptide (Sigma-Aldrich Co. LLC, catalog number: F3290-25MG). After measuring the protein concentration in the eluate, serial dilutions were performed within the range of 0 to 20 ng/reaction to obtain enzyme dilutions of 12 different concentrations. Further, the total RNA was extracted from HEK293-FTSJ1-KO cells, in which FTSJ1 was knocked out, using TRIzol Reagent (Thermo Fisher Scientific Inc., catalog number: 15596018). […] The conversion reaction from SAM (s-adenosyl methionine) to SAH (s-adenosyl homocysteine), which occurred when FLAG-FTSJ1 in each dilution methylated 1,000 ng/reaction of the total RNA, was measured as a luciferase luminescence value using MTase-Glo Reagent in the assay kit. Taking the luminescence value at the time when FLAG-FTSJ1 was 0 ng as a background value, a graph was drawn using the numerical values obtained by subtracting the background value from the luminescence value at each dilution step. […]

[1] = Body weight in the anti-tumor effect evaluation test; format: in vivo, immunodeficient mice (BALB/c-nu/nu); conditions: 20 mg/kg intraperitoneally every other day
Procedure: A cell suspension (1×10^6 cells/100 μL), in which triple-negative breast cancer cell line MDA-MB-231 was suspended in phosphate buffer (PBS, produced by FUJIFILM Wako Pure Chemical Corporation), was inoculated subcutaneously in the dorsal lumbar region of immunodeficient mice (BALB/c-nu/nu, female, 6 weeks old, purchased from Shimizu Laboratory Supplies Co., Ltd.) using a syringe with a 23 G injection needle (Terumo Corporation). After confirming that the cancer cells engrafted under the skin of the mice to form tumor tissues, and that the tumor volume reached 100 mm^3, the obtained tumor model mice were used for the following evaluation test. First, each compound for evaluation was dissolved in corn oil (produced by Sigma-Aldrich Co., LLC) and administered intraperitoneally. PVZF0024 was administered at 100 mg/kg and PVZF2001 was administered at 20 mg/kg to the tumor model mice every other day. At each administration, the tumor diameter was measured with a caliper. The tumor volume was calculated according to the following formula: V=(3.14×D×d^2)/6 (wherein V is the tumor volume, D is the tumor major axis, and d is the tumor minor axis) (Wu. et al., Clin. Cancer Res., 2013 Oct. 15; 19(20): 5699-5710).
FIGS. 1 and 2 show the antitumor effects of PVZF0024 and PVZF2001.

SMILES: CC(C)c1cc(C(C)C)c(S(=O)(=O)CC2CC(C)(C)CC(C)(C)C2)c(C(C)C)c1 [PVZF2001]
- anchorage-independent cell proliferation (sphere-forming ability) (MGG4): showed proliferation inhibition at low concentrations
- inhibitory effect of transmethylation by FTSJ1 (luminescence value) (FTSJ1): a decrease in the luminescence value was observed in a concentration-dependent manner
- weight loss due to administration [1]: no weight loss due to administration was observed
